According to ChEMBL document CHEMBL1139945, “Synthesis and biological evaluation of an 123I-labeled bicyclic nucleoside analogue (BCNA) as potential SPECT tracer for VZV-tk reporter gene imaging” (Bioorg Med Chem Lett, 2007):

Target: T1, Thymidine kinase (Varicella-zoster virus (strain Dumas) (HHV-3) (Human herpesvirus 3), UniProt P09250)
T1 sequence (P09250 whole entry): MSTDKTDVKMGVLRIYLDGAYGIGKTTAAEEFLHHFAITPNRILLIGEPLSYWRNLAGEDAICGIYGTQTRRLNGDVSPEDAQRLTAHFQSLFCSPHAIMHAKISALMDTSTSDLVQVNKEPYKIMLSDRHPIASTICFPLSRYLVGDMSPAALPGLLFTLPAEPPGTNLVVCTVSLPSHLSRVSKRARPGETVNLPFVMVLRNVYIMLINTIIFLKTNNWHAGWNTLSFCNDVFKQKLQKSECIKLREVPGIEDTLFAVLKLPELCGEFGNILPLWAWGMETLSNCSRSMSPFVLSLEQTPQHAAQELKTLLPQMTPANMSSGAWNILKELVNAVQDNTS
Experiment: Inhibition of VZV thymidine kinase
Parameters: species or system Human alphaherpesvirus 3

## O=c1nc2oc(-c3cccc(O)c3)cc2cn1[C@H]1C[C@H](O)[C@@H](CO)O1
  IC50: 2.6 µM

## O=c1nc2oc(-c3ccc(I)c(O)c3)cc2cn1[C@H]1C[C@H](O)[C@@H](CO)O1
  IC50: 4.2 µM
